Legend:
[1] = tested on: benzodiazepine site of GABAARs; test: [3H]flunitrazepam binding in rat cortical membrane homogenates
Experimental: Standard procedures for preparation of rat cortical membranes for radioligand binding assays were conducted as previously described with modifications in speed and number of centrifugation and washes, and buffer compositions. […] Naïve rat cortex was dissected from brain and homogenized in 0.32 M sucrose, 10 mM HEPES buffer (pH 7.4), and centrifuged at 650×g, 4° C. The subsequent supernatant was centrifuged at 150,000×g to collect the desired membrane-containing pellet. The pellet was washed and centrifuged two more times, first using ice-cold water and second using membrane buffer containing 50 mM KH2PO4, 1 mM EDTA, 2 mM benzamidine HCl, 0.5 mM DTT, 0.1 mM benzethonium HCl, 0.01% bacitracin, 0.2 PMSF (pH 7.4), and the resulting pellet was frozen. On the day of binding assay, the pellet was homogenized in assay buffer containing 50 mM KH2PO4, 1 mM EDTA, 200 mM KCl (pH 7.4) and centrifuged, and resuspended in fresh assay buffer to a final protein concentration of 1 mg/ml. […] Specific binding was defined as the total amount bound (zero unlabeled ligand) minus the binding in the presence of 10 μM final concentration flurazepam (Sigma). Data was analyzed with GraphPad Prism 4.0 Software (San Diego, Calif.) to determine IC50 (One-site competition equation) and Hill slope (Sigmoidal Dose-Response equation). Experiments were conducted in triplicate.

Plasma [EtOH] assay = type: in vivo, rat; conditions: two-bottle choice, E+D/water group, end of the fourth week
Experimental: See Liang (2007). The rat was put into a restraint tube and its tail was warm in about 40° C. The tail vein at the tip of the rail was punched with a sharp blade. Approximately 0.2 ml venous blood was dropped to a capillary blood collection tube containing lithium heparin (Ram Scientific Inc. Yonkers, N.Y.). Blood samples were centrifuged at 2500 rpm for 15 min. The supernatant was collected and stored at −80° C. until assay. The EtOH content of each blood sample was measured in duplicate along with EtOH standards using the alcohol oxidase reaction procedures (GM7 Micro-Stat; Analox Instruments, Lunenberg, Mass.).

[2] = tested on: EtOH withdrawal anxiety in rats; test: Elevated plus-maze (EPM) after EtOH withdrawal; type: in vivo, rat
Experimental: 48 hr after injection, rats were sub-divided into 3 groups to measure signs of EtOH withdrawal.
Anxiety and locomotion/ataxia associated with EtOH withdrawal was measured on an elevated plus-maze in EtOH-withdrawn rats (EPM, FIG. 12A). Spent time was measured in minutes. The plus-maze was constructed and the measurements were scored as described previously. See Liang et al. (2004) J Pharmacol Exp Ther 310:1234-1245. Briefly, the maze was elevated 1 m above the floor, and contained four 51 cm-long, 11.5 cm-wide arms arranged at right angles. The closed arms had opaque walls 30 cm high, extending the length of the arm. At the time of the test, each animal was placed in the center of the maze facing an open arm and allowed to explore for a 5-min session. During the session, the animal's behavior (e.g. number of arm entries and time spent in each arm per entry) was recorded on a camcorder

[3] = EtOH+DHM (E+D) group, 48 hr withdrawal

O=C1c2c(O)cc(O)cc2O[C@H](c2cc(O)c(O)c(O)c2)[C@H]1O [DHM, (2R,3R)-3,5,7-trihydroxy-2-(3,4,5-trihydroxyphenyl)-2,3-dihydrochromen-4-one]
concentration at which significant inhibition of [3H]flunitrazepam binding starts [1]: 0.3 µM | IC50 ([1]; [3H]flunitrazepam 1 nM, rat cortex membranes, read-out: IC50, inhibition of [3H]flunitrazepam binding): 4.36 µM | binding to GABAARs in [3H]flunitrazepam binding assay ([1]; comparative experiments): bind GABAARs | plasma [EtOH] vs. E/water group (Plasma [EtOH] assay): significantly lower | time spent in closed arms ([2]; DHM group, 48 hr): 1.52 ± 0.56 min | time spent in open arms ([2]; DHM group, 48 hr): 2.92 ± 0.70 min | time spent in closed arms [2, 3]: 1.88 ± 0.79 min | time spent in open arms [2, 3]: 2.68 ± 0.77 min
